# Legend:
# Format in all cases: cell-based, human
# IL-8 [1] = assay: IL-8 production by PBMC from healthy volunteers, CBA; details: 24 hours, mean ± standard error, n=13
# Method: (§1) CBA protocol was followed according to the manufacturer's instructions. The election of microparticles was performed following the summary of Figure 1.
# (§2) The acquisition on samples was performed with the BD FACS Array Bioanalyser System (FACSArray, Becton Dickinson, San José, CA, USA) and the analysis of the results was completed with the software FCAP Array (Becton Dickinson) in a PC computer.
# (§3) Briefly, the experimental protocol consisted of a plate pre-washing out with Wash Buffer. After decantation, the mixture of capture microparticles was re-suspended in the vortex. Standards and samples were added in the adequate dilution. After permanent stirring incubation during 1 h, the PE detection reagent was added and incubated again during 2h at room temperature. After a washing-out, the acquisition was performed in the flow cytometer. Table 3. -Kit CBA Human Soluble Protein Multiplex Flex Set System.
# The effect of compound 12 on the IL-8 production by the PBMC from healthy volunteers was further investigated, both in the presence and absence of LPS stimuli and monoclonal antibodies anti-CD3 and anti-CD28. PBMC (5 x 10^4 cells/well) from 13 healthy volunteers were cultured in duplicate in 200 µl of complete medium supplemented with the highest solvent concentration (10^-6 M), and 10^-6 M, 10^-7 M and 10^-8 M of compound 12, in the presence and absence of either LPS (10 µg/ml) or anti-CD3 (12.5 ng/ml) + anti-CD28 (1/3x10^5), during 24 hours. Culture supernatants were frozen at -20°C and IL-8 concentration was quantified by BD FACS Array Bioanalyser by using CBA Flex Set, specific to determine the IL-8 concentration, following the manufacturer instructions.
# IFN-gamma = IFN-gamma production by PBMC from patients with rheumatoid arthritis, CBA; details: 24 hours, mean ± standard error, n=8
# Method: as §1, §2, §3
# PBMC (5 x 10^4 cells/well) from 8 patients with rheumatoid arthritis were cultured in duplicate 200 µl of complete medium supplement with the highest solvent concentration (10^-6 M), and 10^-6 M, 10^-7 M and 10^-8 M of compound 12, in the presence and absence either of LPS (10 µg/ml), or anti-CD3 (12.5 ng/ml) + anti-CD28 (1/3x10^5), during 24 hours. Culture supernatants were frozen at -20°C and IFN-gamma concentration was assessed by BD FACS Array Bioanalyser by using CBA Flex Set, specific to determine IFN-gamma concentration, following the manufacturer instructions.
# IL-8 [2] = assay: IL-8 production by PBMC from patients with rheumatoid arthritis, CBA; details: 24 hours, mean ± standard error, n=8
# Method: as §1, §2, §3
# The effect on IL-8 production by PBMC from patients with rheumatoid arthritis was also studied. PBMC (5 x 10^4 cells per well) from 8 patients with rheumatoid arthritis were cultured in duplicate in 200 µl of complete medium supplemented with the highest solvent concentration (10^-6 M), and 10^-6 M, 10^-7 M and 10^-8 M of compound 12, in the presence and in the absence of either LPS (10 µg/ml) or anti-CD3 (12.5 ng/ml) + anti-CD28 (1/3x10^5), during 24 hours. Culture supernatants were frozen at -20°C and IL-8 concentration was quantified by BD FACS Array Bioanalyser by using CBA Flex Set, specific to determine IL-8 concentration, following the manufacturer instructions.
compound,measurement,setting,value
"Cc1nc(OC2CCCC2)c(-c2ccc(S(C)(=O)=O)cc2)s1 [compound 12, 4-cyclopentyloxy-5-(4-methylsulfonyl-phenyl)-2-methylthiazole]",IL-8 production by PMBC from healthy volunteers,"IL-8 [1]; LPS (10µg/ml), 10^-6 M, vehicle 173877.36±8474.49, p 0.807",168467.15±9656.96 (0.807) pg/mL
same,IL-8 production by PMBC from healthy volunteers,"IL-8 [1]; LPS (10µg/ml), 10^-7 M, vehicle 173877.36±8474.49, p 0.249",162075.59±10258.41 (0.249) pg/mL
same,IL-8 production by PMBC from healthy volunteers,"IL-8 [1]; LPS (10µg/ml), 10^-8 M, vehicle 173877.36±8474.49, p 0.861",169609.11±9060.90 (0.861) pg/mL
same,IL-8 production by PMBC from healthy volunteers,"IL-8 [1]; anti-CD3 (12.5 ng/ml) + anti-CD28 (1/3x10^5), 10^-6 M, vehicle 107008.56±8351.21, p 0.311",99779.72±20000 (0.311) pg/mL
same,IL-8 production by PMBC from healthy volunteers,"IL-8 [1]; anti-CD3 (12.5 ng/ml) + anti-CD28 (1/3x10^5), 10^-7 M, vehicle 107008.56±8351.21, p 0.055",97968.61±10220.21 (0.055) pg/mL
same,IL-8 production by PMBC from healthy volunteers,"IL-8 [1]; anti-CD3 (12.5 ng/ml) + anti-CD28 (1/3x10^5), 10^-8 M, vehicle 107008.56±8351.21, p 0.028",92989.29±8463.47 (0.028) pg/mL
same,IL-8 production by PMBC from healthy volunteers,"IL-8 [1]; medium, 10^-6 M, vehicle 72814.17±10647.16, p 0.016",45634.31±6311.13 (0.016) pg/mL
same,IL-8 production by PMBC from healthy volunteers,"IL-8 [1]; medium, 10^-7 M, vehicle 72814.17±10647.16, p 0.006",53732.66±7952.75 (0.006) pg/mL
same,IL-8 production by PMBC from healthy volunteers,"IL-8 [1]; medium, 10^-8 M, vehicle 72814.17±10647.16, p 0.087",57773.60±6667.57 (0.087) pg/mL
same,IFN-gamma production in PMBC from patients with rheumatoid arthritis,"IFN-gamma; LPS (10µg/ml), 10^-6 M, vehicle 461.14±85.00, p 0.484",205.26±46.00 (0.484) pg/mL
same,IFN-gamma production in PMBC from patients with rheumatoid arthritis,"IFN-gamma; LPS (10µg/ml), 10^-7 M, vehicle 461.14±85.00, p 0.208",146.50±33.00 (0.208) pg/mL
same,IFN-gamma production in PMBC from patients with rheumatoid arthritis,"IFN-gamma; LPS (10µg/ml), 10^-8 M, vehicle 461.14±85.00, p 0.889",248.73±35.00 (0.889) pg/mL
same,IFN-gamma production in PMBC from patients with rheumatoid arthritis,"IFN-gamma; anti-CD3 (12.5 ng/ml) + anti-CD28 (1/3x10^5), 10^-6 M, vehicle 8406.18±1000.00, p 0.05",5115.27±600.00 (0.05) pg/mL
same,IFN-gamma production in PMBC from patients with rheumatoid arthritis,"IFN-gamma; anti-CD3 (12.5 ng/ml) + anti-CD28 (1/3x10^5), 10^-7 M, vehicle 8406.18±1000.00, p 0.05",6411.71±700.00 (0.05) pg/mL
same,IFN-gamma production in PMBC from patients with rheumatoid arthritis,"IFN-gamma; anti-CD3 (12.5 ng/ml) + anti-CD28 (1/3x10^5), 10^-8 M, vehicle 8406.18±1000.00, p 0.017",7122.07±950 (0.017) pg/mL
same,IFN-gamma production in PMBC from patients with rheumatoid arthritis,"IFN-gamma; medium, 10^-6 M, vehicle 145.49±28.00, p 0.779",193.68±45.00 (0.779) pg/mL
same,IFN-gamma production in PMBC from patients with rheumatoid arthritis,"IFN-gamma; medium, 10^-7 M, vehicle 145.49±28.00, p 0.208",203.72±50.00 (0.208) pg/mL
same,IFN-gamma production in PMBC from patients with rheumatoid arthritis,"IFN-gamma; medium, 10^-8 M, vehicle 145.49±28.00, p 0.674",235.10±60.00 (0.674) pg/mL
same,IL-8 production in PMBC from patients with rheumatoid arthritis,"IL-8 [2]; LPS (10µg/ml), 10^-6 M, vehicle 150759.65±22966.06, p 0.012",185536.78±22000.00 (0.012) pg/mL
same,IL-8 production in PMBC from patients with rheumatoid arthritis,"IL-8 [2]; LPS (10µg/ml), 10^-7 M, vehicle 150759.65±22966.06, p 0.208",174156.23±13385.66 (0.208) pg/mL
same,IL-8 production in PMBC from patients with rheumatoid arthritis,"IL-8 [2]; LPS (10µg/ml), 10^-8 M, vehicle 150759.65±22966.06, p 0.012",184541.37±21500.00 (0.012) pg/mL
same,IL-8 production in PMBC from patients with rheumatoid arthritis,"IL-8 [2]; anti-CD3 (12.5 ng/ml) + anti-CD28 (1/3x10^5), 10^-6 M, vehicle 118017.97±21116.00, p 0.263",124576.09±14605.02 (0.263) pg/mL
same,IL-8 production in PMBC from patients with rheumatoid arthritis,"IL-8 [2]; anti-CD3 (12.5 ng/ml) + anti-CD28 (1/3x10^5), 10^-7 M, vehicle 118017.97±21116.00, p 0.889",109607.00±18310.15 (0.889) pg/mL
same,IL-8 production in PMBC from patients with rheumatoid arthritis,"IL-8 [2]; anti-CD3 (12.5 ng/ml) + anti-CD28 (1/3x10^5), 10^-8 M, vehicle 118017.97±21116.00, p 0.575",121587.88±16117.25 (0.575) pg/mL
same,IL-8 production in PMBC from patients with rheumatoid arthritis,"IL-8 [2]; medium, 10^-6 M, vehicle 57877.64±11143.52, p 0.208",98012.08±8395.97 (0.208) pg/mL
same,IL-8 production in PMBC from patients with rheumatoid arthritis,"IL-8 [2]; medium, 10^-7 M, vehicle 57877.64±11143.52, p 0.161",96498.50±10784.62 (0.161) pg/mL
same,IL-8 production in PMBC from patients with rheumatoid arthritis,"IL-8 [2]; medium, 10^-8 M, vehicle 57877.64±11143.52, p 0.123",93977.67±9247.38 (0.123) pg/mL

# Source: patent EP2135864A1, “5-(4-methanesulfonyl-phenyl)-thiazole derivatives for the treatment of acute and chronic inflammatory diseases” (FAES FARMA, S.A., priority 2008, dated 2009)
